This passage reports log reduction and Log reduction results from patent publication US12605318B2, “Synergistic preservative/personal care composition containing an alkylene glycol ester” (priority 2020, dated 2026).

Some results are limits rather than exact numbers.

Test in all cases: Log reduction test of preservative agent and PGC in water matrices (drop plate), Example 3
Holding throughout (type): cell-based

In assay [1] the test system is Candida albicans ATCC 10231/DSM 1386. The following applies: PGC 0 ppm; for Log reduction: contact time 5 min, water. The procedure: (§1) Bacterial and yeast strains were kept cryofrozen at −80° C.; before use, they were sub-cultured onto tryptone soya agar (Bacteria) and malt extract agar (yeast), and incubated at the appropriate temperature and time.
(§2) A test suspension was then created for each the bacteria and yeast by adding loopfuls of organism to sterile distilled water and adjusting the cell concentration to between 1×10^8 and 5×10^9 CFU/ml for bacteria, and 1×10^6 and 5×10^7 CFU/ml for yeast. This was achieved using the data from a calibration curve generated by a spectrophotometer at a wavelength of 620 nm.
(§3) For each organism tested, 1 g of each preservative agent and PGC composition sample was prepared in sterile distilled water.
(§4) Each test sample was prepared by inoculating 1 ml aliquot of the test organism suspension into 1 ml of test sample.
(§5) The combination was then mixed. Each test mixture was sampled and tested at a defined time point after inoculation. The contact times used in this study are detailed in Table 7 above.
(§6) Upon reaching the specified contact time the test mixture was deactivated by adding a 100 μl of test mixture into 900 μl of neutralizing broth and the whole solution was mixed. The solution was left for 5 minutes to ensure the action of the preservative agent was effectively neutralized. Subsequent dilutions were prepared by adding 100 μl into 900 μl of neutralizing broth.
(§7) For each dilution prepare drop plates using appropriate agar and incubate at the appropriate temperature and time as in Table 5.
(§8) Used the drop plate technique.
(§9) Prepare agar plates by drying for 45 min-1 hour in a laminar flow at 20-25° C. Aliquot 0.025 ml drops onto the agar surface for each sample dilution. Allow drops to dry and incubate appropriately.
(§10) Plates were plates were prepared in sextuplicate for each for each sample dilution.
(§11) [formula] • Where • d1 is sum of viable count values from 6 drops • This was then multiplied by 40 to establish cfu/ml; Enumeration and Calculation of T (Test Sample)
(§12) [formula] • Where • d1 is sum of viable count values from 6 drops • This was then multiplied by 40 to establish cfu/ml;
(§13) To calculate the final log reduction the following calculation was used: Log 10 N−log 10 T=log reduction

Assay [2] relates to Pluralibacter gergoviae ATCC 33028/DSM 9245. As to conditions: PGC 0 ppm; for Log reduction: contact time 5 min, water. The procedure: as §1, §2, §3, §4, §5, §6, §7, §8, §9, §10, §11, §12, §13
Assay [3] has as its system Aspergillus brasiliensis ATCC 16404/NCPF 2275. The following applies: PGC 0 ppm. The procedure: A test suspension was then created in tryptone buffered saline and adjusting the cell concentration to between 1×10^5 and 5×10^6 CFU/ml.
as §3, §4, §5, §6, §7, §8, §9, §10, §11, §12, §13

Where [4] appears, read: Didecyl dimethyl ammonium chloride 10 ppm.
[5] abbreviates: Didecyl dimethyl ammonium chloride 20 ppm.
Where [6] appears, read: Didecyl dimethyl ammonium chloride 30 ppm.
Setting [7] is: Didecyl dimethyl ammonium chloride 40 ppm.
Setting [8] is: Didecyl dimethyl ammonium chloride 50 ppm.

Turning to `O=c1[nH]sc2ccccc12` [Benzisothiazolinone], the log reduction in assay [1] (Benzisothiazolinone 50 ppm), in assay [1] (Benzisothiazolinone 100 ppm), in assay [1] (Benzisothiazolinone 250 ppm), in assay [1] (Benzisothiazolinone 500 ppm), in assay [1] (Benzisothiazolinone 1000 ppm) and in assay [2] (Benzisothiazolinone 12.5 ppm) was 0.00 in each case. The log reduction is listed as 0.00 in assay [2] (Benzisothiazolinone 25 ppm); 0.00 in assay [2] (Benzisothiazolinone 50 ppm); 0.03 in assay [2] (Benzisothiazolinone 100 ppm); 1.21 in assay [2] (Benzisothiazolinone 200 ppm); −0.03 in assay [3] (Benzisothiazolinone 50 ppm); 0.17 in assay [3] (Benzisothiazolinone 100 ppm). Also, the log reduction turned out to be 0.14 in assay [3] (Benzisothiazolinone 250 ppm), 0.24 in assay [3] (Benzisothiazolinone 500 ppm) and 0.28 in assay [3] (Benzisothiazolinone 1000 ppm).

In the case of `OCc1ccccc1` [Benzyl Alcohol], the log reduction came to 0.00 in assay [2] (Benzyl Alcohol 500 ppm); 1.24 in assay [2] (Benzyl Alcohol 1000 ppm); 1.57 in assay [2] (Benzyl Alcohol 2000 ppm); 2.04 in assay [2] (Benzyl Alcohol 3000 ppm); 4.04 in assay [2] (Benzyl Alcohol 4000 ppm).

For `CCCCCCCCCCCCN(CCCN)CCCN` [Bis (3-aminopropyl) dodecylamine], the Log reduction in assay [1] (Bis (3-aminopropyl) dodecylamine 10 ppm) was 3.14; in assay [1] (Bis (3-aminopropyl) dodecylamine 20 ppm) it was above 4.44; in assay [1] (Bis (3-aminopropyl) dodecylamine 40 ppm), above 4.44; in assay [1] (Bis (3-aminopropyl) dodecylamine 60 ppm), above 4.44; in assay [1] (Bis (3-aminopropyl) dodecylamine 80 ppm), above 4.44; in assay [2] (Bis (3-aminopropyl) dodecylamine 5 ppm) it was 0.01. In addition, the Log reduction in assay [2] (Bis (3-aminopropyl) dodecylamine 12.5 ppm) is given as 0.00; in assay [2] (Bis (3-aminopropyl) dodecylamine 25 ppm) it was 2.00; in assay [2] (Bis (3-aminopropyl) dodecylamine 50 ppm), above 5.52; in assay [2] (Bis (3-aminopropyl) dodecylamine 100 ppm), above 5.52.

`CC(=O)C1C(=O)C=C(C)OC1=O` (stereo not drawn) [Dehydroacetic acid]: the log reduction in assay [1] (Dehydroacetic acid 1000 ppm) is listed as 0.00; in assay [1] (Dehydroacetic acid 2000 ppm) it was 0.00; in assay [1] (Dehydroacetic acid 3000 ppm), 0.00; in assay [1] (Dehydroacetic acid 4000 ppm), 0.23; in assay [1] (Dehydroacetic acid 5000 ppm), 0.52.

In the case of `CCCCCCCCCC[N+](C)(C)CCCCCCCCCC.[Cl-]` [Didecyl dimethyl ammonium chloride], the Log reduction in assay [1] (setting [4]) is reported as 1.07; in assay [1] (setting [5]), 1.01; in assay [1] (setting [6]) it was 1.33; in assay [1] (setting [7]), 2.43; in assay [1] (setting [8]), above 4.52. For the same compound, the log reduction in assay [3] (setting [4]) was 1.01; in assay [3] (setting [5]) it was 2.44; in assay [3] (setting [6]), above 4.05; in assay [3] (setting [7]) it was above 4.05; in assay [3] (setting [8]), above 4.05.

Consider `CC(O)C(=O)O` (stereo not drawn) [Lactic Acid], for which the log reduction in assay [2] (Lactic Acid 200 ppm) is reported as 0.00; in assay [2] (Lactic Acid 500 ppm), 0.00; in assay [2] (Lactic Acid 1000 ppm), 2.08; in assay [2] (Lactic Acid 1500 ppm), 3.67; in assay [2] (Lactic Acid 2000 ppm), 4.49; in assay [3] (Lactic Acid 100 ppm), 0.06. Moreover, the log reduction in assay [3] (Lactic Acid 250 ppm) turned out to be 0.12; in assay [3] (Lactic Acid 500 ppm), 0.05; in assay [3] (Lactic Acid 1000 ppm) it was 0.08; in assay [3] (Lactic Acid 2500 ppm), 0.15.

`O=C([O-])c1ccccc1.[Na+]` [Sodium Benzoate]: the log reduction in assay [1] (Sodium Benzoate 10000 ppm) is listed as 0.00; in assay [1] (Sodium Benzoate 20000 ppm), 0.00; in assay [1] (Sodium Benzoate 30000 ppm), 0.00; in assay [1] (Sodium Benzoate 40000 ppm), 0.00; in assay [1] (Sodium Benzoate 50000 ppm), 2.06; in assay [2] (Sodium Benzoate 2000 ppm), 0.00. In addition, the log reduction turned out to be 0.00 in assay [2] (Sodium Benzoate 5000 ppm); 0.00 in assay [2] (Sodium Benzoate 10000 ppm); 0.46 in assay [2] (Sodium Benzoate 20000 ppm); 1.40 in assay [2] (Sodium Benzoate 30000 ppm); 0.17 in assay [3] (Sodium Benzoate 10000 ppm); 0.50 in assay [3] (Sodium Benzoate 20000 ppm). Further, the log reduction was determined as 0.70 in assay [3] (Sodium Benzoate 30000 ppm), 1.32 in assay [3] (Sodium Benzoate 40000 ppm) and 1.34 in assay [3] (Sodium Benzoate 50000 ppm).

In the case of `C/C=C/C=C/C(=O)O` [Sorbic Acid], the log reduction in assay [2] (Sorbic acid 100 ppm) is given as 0.00; in assay [2] (Sorbic acid 200 ppm) it was 0.00; in assay [2] (Sorbic acid 300 ppm), 0.00; in assay [2] (Sorbic acid 400 ppm), 0.58; in assay [2] (Sorbic acid 500 ppm), 1.38.
